Measurements: publication PMC7696666, “Epithelial Transfer of the Tyrosine Kinase Inhibitors Erlotinib, Gefitinib, Afatinib, Crizotinib, Sorafenib, Sunitinib, and Dasatinib: Implications for Clinical Resistance” (Cancers, 2020)
Several values for one entry are separate records, joined by “and”; a condition that tells them apart may be missing. Equal values may be shown once. Entries after “also recorded” stand apart in the source; their conditions may differ. Read-outs that look alike come from different tables or passages of the source.

Assays:
[1] = set-up: method as in PMID 30544701; conditions: method not given, ref [45], cited from earlier work
[2] = CaCo2 Transwell transport (Papp, efflux ratio); assay type: in vitro ADME, human; conditions: human; for efflux ratio at 180 min, 10 µM / efflux ratio at 180 min, 20 µM: read-out: Efflux Ratio (Papp B–A / Papp A–B); for Papp A→B at 180 min, 10 µM / Papp A→B at 180 min, 20 µM: read-out: Papp (Apical Basolateral); for Papp B→A at 180 min, 10 µM / Papp B→A at 180 min, 20 µM: read-out: Papp (Basolateral Apical); for efflux ratio at 180 min, 20 µM: Caco-2, 20 µM
Protocol: (§1) The Transwell system was developed using the wild type Caco-2 cell line (passage 15–25) cultured in Dulbecco’s […] medium (DMEM) at standard conditions of 37 °C, 5% CO2, and 100% humidity as previously reported. […] To ensure a controlled growth environment the plate was covered with Breathe-Easier cell culture foil during the incubation period. The integrity of the developed monolayer was assessed by TEER before administration of compound solutions and after the final sampling stage.
(§2) The initial concentration of the drug was verified from a 20 µL sample taken immediately from the donor compartment after drug administration (t = 0).
(§3) The permeability coefficient (Papp) represents a measure for the efficiency of transport and was calculated with the following equation: Papp=ΔQ/Δt×V/C0⋅A where ∆Q/∆t = the rate of increase in drug concentration (accumulative mass transport) in the receiver compartment over time (µM/s), V = volume in the receiver compartment (mL), C0 = the initial concentration of drug in the donor compartment (µM), and A = the membrane surface area (cm^2).
(§4) To take into account the slightly nonlinear transfer characteristics of each compound, the rate of increase in drug concentration was determined for each time period and the Papp was then calculated. The average Papp was then determined with units of cm/s × 10^−6 or µm/s.
(§5) The efflux ratio was calculated according to the equation: Efflux ratio=PappB→A/PappA→B.
(§6) Statistical significance was determined using a simple Student’s t-test where a p value of <0.05 was considered significant.

CaCo2 monolayer [3] = experiment: CaCo2 Transwell transport (Papp, efflux ratio); assay type: in vitro ADME, human; conditions: for Papp basolateral to apical: B–A
Protocol: as §1, §2, §3, §4, §5, §6

CaCo2 cells [4] = experiment: Intracellular accumulation in CaCo2 Transwell cells at the end of the transport period; assay type: in vitro ADME, human; conditions: for Intracellular accumulation at the end of the transfer period (A->B): A->B incubation
Protocol: (§7) In order to get insight in the barrier role of the CaCo2 model system, we determined the intracellular accumulation of the TKISs at the end of the transport period, in normal monolayers of CaCo2 cells and in several other colon cancer cell lines. At the end of the transport period (both from the B->A and A->B incubations), cells were harvested and intracellular accumulation was determined.
(§8) These cells were exposed to 20 μM of a TKI and were harvested after 2 h for determination of TKI concentration with LC-MS-MS. Values are means ± SEM for the number of experiments described in Figure 3, Figure 4, and Figure 5 and from three separate experiments for the monolayer CaCo2 and WiDr cells. […] A->B, mass transport from A to B; B->A, mass transport from B to A. For AFA, CRI, and DAS, no data in WiDr cells were available. […] The bar heights were not read.
(§9) In a different set of experiments, the CaCo2 cells were cultured in 6-wells plates as monolayers until semiconfluency. Two other colon cancer cell lines, WiDr and HT29, were cultured similarly. These cells were exposed for 2 h to various TKIs at concentrations varying from 50 nM to 20 µM). […] At the end of the incubation, cells were harvested, as described earlier, and extracted for drug analysis using LC-MS-MS as described above.

[5] = Disposition in blood compartments (whole blood, plasma, serum) of patients; assay type: in vivo, human; conditions: for blood plasma ratio: human, whole blood and plasma, oral
Protocol: Each individual sample was divided into two components; a 1 mL of tube of whole blood and 0.5 of plasma, each sample was stored at −20 °C until analysis could be performed. An additional serum sample was also obtained for patients treated with erlotinib. Blood samples for afatinib were obtained from NSCLC patients after 4 days receiving the standard daily dose of 40 mg.
Blood samples were taken at 1, 2, and 30 days after the start of treatment. Samples were separated from the whole blood into plasma, serum, and a packed red blood cell pellet (using the MESED apparatus). In a dose escalation study in order to determine whether a high pulsatile dose of sorafenib could be given to patients, we analyzed red blood cells and whole blood in 12 patients treated with sorafenib at total doses ranging from 2000 to 2800 mg daily. From these patients, samples were collected in 3 cycles.
For sunitinib, initially pharmacokinetic samples were collected over the first 24 h period from a single patient, with a renal cell carcinoma receiving a nonstandard treatment schedule (700 mg biweekly), in comparison to the standard 50 mg daily dose. Whole blood samples were divided into plasma, serum, and a packed red blood cell pellet. This cohort could later be extended with 6 patients treated with 800 mg sunitinib every 2 weeks enrolled in a clinical study to determine the tolerability of pulsatile sunitinib.
Five blood samples were taken over a 5-month period and divided into whole blood, an extracted 100 µL of red blood cells, and a plasma sample.

CaCo2 monolayer [6] = conditions: cited from earlier work; for Papp (Apical Basolateral) / Papp (Basolateral Apical) / Efflux Ratio (Papp B–A / Papp A–B): 20 µM, previously reported, ref [39]; for Papp (Apical Basolateral): A–B; for Papp (Basolateral Apical): B–A
WiDr cells = experiment: Intracellular accumulation in WiDr colon cancer cells (monolayer); assay type: in vitro ADME; conditions: 20 μM, 2 h
Protocol: as §8, §9

CaCo2 cells [7] = experiment: Intracellular accumulation in CaCo2 cells grown as normal monolayers; assay type: in vitro ADME, human; conditions: 20 μM, 2 h
Protocol: as §8, §9

HT29 cells = experiment: Intracellular accumulation in HT29 colon cancer cells; assay type: in vitro ADME; conditions: after 24 h
Protocol: as §7
In a different set of experiments, the CaCo2 cells were cultured in 6-wells plates as monolayers until semiconfluency. Two other colon cancer cell lines, WiDr and HT29, were cultured similarly. […]

[8] = clinical samples, read-out: Blood to plasma ratio
[9] = Caco-2, with sorafenib (co-incubated, concentration not stated), 10 µM, with sorafenib
[10] = Caco-2, with erlotinib (co-incubated, concentration not stated), 10 µM, with erlotinib

Structure (SMILES) | Log P [1] | Log D (pH 5.5) [1] | Log D (pH 7.5) [1] | efflux ratio at 180 min, 10 µM ([2]; Caco-2, 10 µM) | Papp A→B at 180 min, 10 µM ([2]; Caco-2, 10 µM) [×10⁻⁶ cm/s] | Papp B→A at 180 min, 10 µM ([2]; Caco-2, 10 µM) [×10⁻⁶ cm/s] | Efflux Ratio (Papp B–A / Papp A–B) (CaCo2 monolayer [3]; 10 µM) | Papp apical to basolateral (CaCo2 monolayer [3]; 10 µM, A–B) | Total amount transferred apical to basolateral in 3 h (CaCo2 monolayer [3]; 10 µM, A–B) | Papp basolateral to apical (CaCo2 monolayer [3]; 10 µM) | Intracellular accumulation at the end of the transfer period (A->B) (CaCo2 cells [4]) | Papp (Apical Basolateral) (CaCo2 monolayer [6]) | Papp (Basolateral Apical) (CaCo2 monolayer [6]) | Efflux Ratio (Papp B–A / Papp A–B) (CaCo2 monolayer [6]) | blood plasma ratio [5, 8] | Intracellular accumulation in HT29 cells (HT29 cells) [pmol/μg protein] | efflux ratio at 180 min, 20 µM [2] | Papp A→B at 180 min, 20 µM ([2]; Caco-2) [×10⁻⁶ cm/s] | Papp B→A at 180 min, 20 µM ([2]; Caco-2) [×10⁻⁶ cm/s] | Total amount transferred apical to basolateral in 3 h (CaCo2 monolayer [3]; 20 µM, A–B) | further results
CN(C)C/C=C/C(=O)Nc1cc2c(Nc3ccc(F)c(Cl)c3)ncnc2cc1O[C@H]1CCOC1 [Afatinib, afatinib] | 3.59 | 1.00 | 2.87 | > 5 | 1.5 ± 2.2 | 10.9 ± 5 | 7.3 | 1.48 ×10⁻⁶ cm/s | 90 pmol | 10.9 ×10⁻⁶ cm/s | 0.45 pmol/μg protein |  |  |  |  |  |  |  |  |  | Papp apical to basolateral (CaCo2 monolayer [3]; 10 µM, A–B, listed as afatinib): 1.5 ×10⁻⁶ cm/s; Efflux Ratio (Papp B–A / Papp A–B) (CaCo2 monolayer [3]; 10 µM, listed as afatinib): 7.34 and > 6
C[C@@H](Oc1cc(-c2cnn(C3CCNCC3)c2)cnc1N)c1c(Cl)ccc(F)c1Cl [Crizotinib, crizotinib] | 4.73 | 0.30 | 1.80 | > 5 |  | 7.7 ± 5.5 |  |  | nothing could be detected |  | 2.11 pmol/μg protein |  |  |  |  |  |  |  |  |  | Whole blood concentration higher than plasma ([5]; standard dose (250 mg twice daily), single patient): 30%; Papp (Apical Basolateral) (CaCo2 monolayer [3]; 10 µM, A–B): Unmeasurable; Effect of exposure on CaCo2 cells and membrane (CaCo2 monolayer [3]; 20 µM exposure): caused cell death and disruption of the membrane; A–B mass transport at 20 µM, fold lower than B–A mass transport at 10 µM (CaCo2 monolayer [3]; A–B 20 µM vs B–A 10 µM): 20 fold
C#Cc1cccc(Nc2ncnc3cc(OCCOC)c(OCCOC)cc23)c1 [Erlotinib, erlotinib] | 2.39 | 2.74 | 3.04 | 1.6 | 0.48 ± 0.26 | 0.79 ± 0.65 |  | 0.48 µm/s |  |  | not detectable; also recorded: no erlotinib was detectable | 0.13 ± 0.001 ×10^−6 cm/s | 0.70 ± 0.30 ×10^−6 cm/s | 5.4 | > 30 | 0.035 |  |  |  |  | Efflux Ratio (Papp B–A / Papp A–B) (CaCo2 monolayer [6]; listed as erlotinib): > 5; Fold higher in whole blood compared to plasma ([5]; standard dosing regimen, clinical samples): 100 fold; efflux ratio at 180 min, 10 µM [2, 9]: 1.4; Papp A→B at 180 min, 10 µM [2, 9]: 0.35 ± 0.17 ×10⁻⁶ cm/s; Papp B→A at 180 min, 10 µM [2, 9]: 0.48 ± 0.3 ×10⁻⁶ cm/s; Intracellular accumulation in WiDr cells (WiDr cells): no erlotinib; Intracellular accumulation in CaCo2 monolayer (CaCo2 cells [7]): just detectable; Intracellular accumulation at the end of the transfer period (B->A) (CaCo2 cells [4]; B->A incubation): no erlotinib was detectable
COc1cc2ncnc(Nc3ccc(F)c(Cl)c3)c2cc1OCCCN1CCOCC1 [Gefitinib, gefitinib] | 4.11 | 1.96 | 3.55 | 0.33 | 0.57 ± 0.43 | 0.19 ± 0.12 | 0.3 | 0.57 ×10⁻⁶ cm/s |  | 0.19 µm/s | 0.79 pmol/μg protein | 0.38 ± 0.05 ×10^−6 cm/s | 0.39 ± 0.038 ×10^−6 cm/s | 1.0 |  |  |  |  |  |  | Efflux ratio after treatment with NaN3 (CaCo2 monolayer [6]; after NaN3, ref [38],[39]): 0.46
CNC(=O)c1cc(Oc2ccc(NC(=O)Nc3ccc(Cl)c(C(F)(F)F)c3)cc2)ccn1 [Sorafenib, sorafenib] | 5.16 | 4.26 | 4.26 | 0.92 | 10.1 ± 9.5 | 9.3 ± 5.8 |  |  |  |  | 1.65 pmol/μg protein |  |  |  | > 3 | 6 | 0.86 | 14.1 ± 11.5 | 11.4 ± 5.6 | approximately 950 pmol | blood plasma ratio ([5]; 2000–2800 mg cumulative daily dose, 12 patients, mean ± SD, read-out: Whole blood/plasma ratio): 1.2 ± 0.4; Fold increase of concentration in whole blood compared to plasma ([5]; low dose (400 mg twice daily), several patients): 2–4 fold; efflux ratio at 180 min, 10 µM [2, 10]: 0.71; Papp A→B at 180 min, 10 µM [2, 10]: 18.6 ± 13.2 ×10⁻⁶ cm/s; Papp B→A at 180 min, 10 µM [2, 10]: 13.3 ± 10.5 ×10⁻⁶ cm/s; Efflux Ratio (Papp B–A / Papp A–B) (CaCo2 monolayer [3]; 20 µM): 0.81; Efflux Ratio (Papp B–A / Papp A–B) (CaCo2 monolayer [3]; 20 µM, listed as sorafenib): 0.8
CCN(CC)CCNC(=O)c1c(C)[nH]c(/C=C2\C(=O)Nc3ccc(F)cc32)c1C [Sunitinib, sunitinib] | 3.15 | −0.09 | 1.09 |  |  |  |  |  |  |  | 11.9 pmol/μg protein |  |  |  |  | 32.2 | 1.6 | 7.7 ± 4.6 | 12.6 ± 12.3 | 581.2 pmol | blood plasma ratio ([5]; 50 mg, standard treatment at 50 mg, read-out: Whole blood/plasma ratio): 0.7; blood plasma ratio ([5]; single dose 14-fold higher than standard, 7 patients, mean ± SD, read-out: Whole blood/plasma ratio): 2.6 ± 0.7; Whole blood concentration lower than plasma ([5]; standard dosing regimen): 40–50%
